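Briefly, cells in 96-well plates were exposed to five compound concentrations for 48 h, and endpoints were estimated by linear interpolation. GI50 = concentration required for 50% inhibition of growth. TGI: concentration producing complete growth inhibition.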
What was measured:
Assay in all cases: NCI tumour cell line growth inhibition, 48 h
OVCAR-4 ovarian = tested on: OVCAR-4 ovarian
TK-10 renal = tested on: TK-10 renal
UACC-257 melanoma = tested on: UACC-257 melanoma
HCC-2998 colon = tested on: HCC-2998 colon
HT29 colon = tested on: HT29 colon
HL-60(TB) leukemia = tested on: HL-60(TB) leukemia
SW-620 colon = tested on: SW-620 colon
CAKI-1 renal = tested on: CAKI-1 renal
SNB-19 CNS = tested on: SNB-19 CNS
NCI/ADR-RES ovarian = tested on: NCI/ADR-RES ovarian

Row | Structure (SMILES) | TGI (OVCAR-4 ovarian) [µM] | TGI (TK-10 renal) [µM] | TGI (UACC-257 melanoma) [µM] | TGI (HCC-2998 colon) [µM] | TGI (HT29 colon) [µM] | TGI (HL-60(TB) leukemia) [µM] | TGI (SW-620 colon) [µM] | TGI (CAKI-1 renal) [µM] | GI50 (OVCAR-4 ovarian) [µM] | GI50 (TK-10 renal) [µM] | GI50 (UACC-257 melanoma) [µM] | GI50 (HCC-2998 colon) [µM] | GI50 (HT29 colon) [µM] | GI50 (SNB-19 CNS) [µM] | TGI (SNB-19 CNS) [µM] | GI50 (NCI/ADR-RES ovarian) [µM] | TGI (NCI/ADR-RES ovarian) [µM] | GI50 (SW-620 colon) [µM] | GI50 (CAKI-1 renal) [µM] | GI50 (HL-60(TB) leukemia) [µM]
1 | O=C1CCC2(c3ccccc3)Nc3ccccc3N12 (configuration not stated) | > 100 | > 100 | > 100 | > 100 | > 100 | > 100 | > 100 | > 100 |  |  |  |  |  |  |  |  |  |  |  | 
2 | C=C1C(=O)O[C@H]2[C@H]1CC/C(COC(=O)N[C@H]1C[C@H](O[C@H]3C[C@](O)(C(=O)CO)Cc4c(O)c5c(c(O)c43)C(=O)c3c(OC)cccc3C5=O)O[C@@H](C)[C@H]1O)=C\CC[C@@]1(C)O[C@@H]21 | 12.3 | > 50 | 13.7 | 28.7 | 22 |  | 3 | > 50 | 3.47 | 9 | 7.17 | 11.8 | 4.48 | 13.2 | > 50 | > 50 | > 50 | 1.15 | 7.76 | 
3 | CC(/C=C/C(O)=C1/C(=O)CNC1=O)=C\[C@@H](C)[C@H]1O[C@@]2(C)O[C@H](C(=O)[C@@H]3O[C@@]32C)[C@@H]1C |  | 44.2 | 35.6 |  | 47 | 80.6 | > 100 | 57 |  |  |  |  |  |  | 55.4 |  | 63.7 |  |  | 
4 | C=C1C(=O)C23[C@H](O)C1CC[C@H]2[C@]12COC3(O)[C@@H](O)[C@@H]1C(C)(C)CC[C@@H]2O | 33.5 | 31 | 29.5 | 29.9 | 36.6 | 47.3 | 4.86 | 4.89 |  |  |  |  |  |  | 32.7 |  |  |  |  | 
5 | COc1ccccc1-c1cc(=O)c2cc(C)c(C)c(C(=O)O)c2o1 | > 100 | > 100 | > 100 | > 100 | > 100 | > 100 | > 100 |  |  |  |  |  |  |  | > 100 |  |  |  |  | 
6 | OC1=CN=COc2ccccc21 | > 100 | > 100 | > 100 | > 100 | > 100 | > 100 | > 100 |  |  |  |  |  |  |  | > 100 |  |  |  |  | 
7 | CC1(C)COC2C(N(Cc3ccccc3)Cc3ccccc3)C(=O)N21 (configuration not stated) | > 100 | > 100 | > 100 | > 100 | > 100 | 62.9 | > 100 | > 100 |  |  |  |  |  |  | 71.8 |  |  |  |  | 
8 | CN(C)c1ccc(/C=C(\NC(=O)c2ccccc2)c2nc3ccc4c(c3[nH]2)C(=O)c2ccccc2C4=O)cc1 | > 100 | > 100 | > 100 | > 100 | > 100 |  | > 100 | > 100 |  |  |  |  |  |  | > 100 |  |  |  |  | 
9 | C#CCN(N=O)C(=O)ON1C(=O)CCC1=O | > 100 | > 100 | > 100 |  | > 100 | > 100 | > 100 |  |  |  |  |  |  |  | > 100 |  |  |  |  | 
10 | COc1cc2c(c3c1c(=O)c1ccccc1n3C)C=CC(C)(C)O2 | > 100 | > 100 | > 100 |  | > 100 | > 100 | > 100 | > 100 |  |  |  |  |  |  | > 100 |  |  |  |  | 
11 | COC/N=C(\NC#N)NCOC | > 100 | > 100 | > 100 | > 100 | > 100 | > 100 | > 59.7 | > 100 |  |  |  |  |  |  | > 100 |  |  |  |  | 
12 | CC(=O)c1cccc(NC(=O)C(=O)c2c(O)c3ccccc3oc2=O)c1 | > 100 | > 100 | > 100 | > 100 | > 100 |  | > 100 | > 100 |  |  |  |  |  |  | > 100 |  | > 100 |  |  | 
13 | CCOc1ccc(N=C(NC(=O)c2ccccc2)SC)cc1 | > 100 | > 100 | > 100 | > 100 | > 100 | > 100 | > 100 | > 100 |  |  |  |  |  |  | > 100 |  |  |  |  | 
14 | COc1cc(OC)c2sc(-c3ccc(-n4cncc4-c4ccc(OC)c(OC)c4)cc3)nc2c1 | > 100 | > 100 | > 100 | > 100 | > 100 | > 100 | > 100 |  | 4.21 | 31.7 | > 100 | > 100 | 7.13 | > 100 | > 100 | > 100 | > 100 | > 100 |  | 3.09
15 | CCCC1(CN2c3ccccc3Sc3ccc(Cl)cc32)CCN(CC)C1 (configuration not stated) | 3.39 | 3.32 | 3.56 | 3.27 | 3.75 |  | 3.31 | 3.2 | 1.75 | 1.7 | 1.77 | 1.68 | 1.88 | 2 | 3.78 | 1.68 | 3.36 | 1.7 | 1.7 | 
16 | Cc1cc(NCc2cc(Nc3ccnc4cc(Cl)ccc34)ccc2F)nc(N2CCOCC2)n1 |  | 3.92 |  | 5.44 | 5.68 | 3.82 | 4.7 | 3.21 |  | 1.96 |  | 2.27 | 2.21 | 3.79 | 54.4 | 2.34 | 6.97 | 1.81 | 1.52 | 1.77
17 | COc1ccc(Nc2nc(Nc3cc(C)[nH]n3)c3cc(OC)c(OC)cc3n2)cc1 | 2.22 |  |  | 2.9 |  |  | 1.02 | 2.95 | 0.789 |  |  | 1.32 |  | 1.56 | 3.18 |  |  | 0.314 | 1.59 | 
18 | CCCC(=O)N[C@H]1CCc2cc(OC)c(OC)c(OC)c2-c2ccc(SC)c(=O)cc21 | > 100 | 99.9 | > 74.1 | > 4.64 | 0.724 | < 0.01 | > 100 | 14.1 |  |  |  |  |  |  | > 94.6 |  |  |  |  | 
19 | CC1CC2(S(=O)(=O)c3ccccc3)ON1CC2S(=O)(=O)c1ccccc1 (configuration not stated) | > 100 | > 100 | > 100 | > 100 | > 100 | > 100 | > 100 | > 100 |  |  |  |  |  |  | > 100 |  |  |  |  | 
20 | CSc1ncnc2c1ncn2CC(=O)C1CCC2C3CCC4=CC(=O)CCC4(C)C3CCC12C (configuration not stated) | 21.3 | 30.1 | 6.09 |  | > 100 | 0.926 | > 100 | > 70.2 |  |  |  |  |  |  | > 100 |  | 7.57 |  |  | 

Source: PubChem BioAssay (NCI)
